Experimental data reported in EP0588317A1 (priority 1992, dated 1994).
Like-named read-outs stand apart in the source and are kept apart here. Values belong to the compound of their own block, whether it stands above or below them.

Assays:
[1] = solubility in soybean oil; assay type: physicochemical
From the text: The oil phase component used for preparing fat emulsions (or lipid emulsions) may be any of those conventionally used for preparing fat emulsions (or lipid emulsions), including vegetable oils such as soybean oil, cottonseed oil, synthetic triglycerides such as Panasate 800, Panasate 810 (trade name; manufactured by Nippon Yushi), squalene, eicosapentaenoic acid, azone, and the like. For preparing fat emulsions (or lipid emulsions), high solubility in these oil components is required for substance to be fat-emulsified (or lipid-emulsified). The compound of the present invention has a high solubility in these oil components, for example, 300 mg/ml or more in soybean oil at 40°C. The fat emulsions (or lipid emulsions) can be prepared by dissolving the compound of the present invention in soybean oil, Panasate, etc., adding lecithin to the solution, crude-emulsifying the mixture with a homomixer, etc., and then fine-emulsifying with a nanomizer under high pressure.

colon 26 cells = assay: anti-tumor activity of fat emulsion given intravenously to mice inoculated with colon 26 cells; assay type: in vivo; settings: fat emulsions, 14 days, dose per day 50 mg/kg
[2] = system: established cell line derived from mice; settings: at the same molar concentration, in vitro, versus 5-fluorouracil; cited from earlier work
[3] = versus 5-fluorouracil; cited from earlier work

Compound: CCCCC/C=C\C/C=C\CCCCCCCC(=O)OCn1c(=O)c(F)cn([C@H]2C[C@H](OC(C)=O)[C@@H](COC(C)=O)O2)c1=O [Example 3, 3',5'-O-diacetyl-3-linolyloxymethyl-2'-deoxy-5-fluorouridine]
- solubility ([1]; soybean oil, 40 °C, oil or lipid; read-out: solubility of this compound in soybean oil): > 300 mg/mL

Compound: CCCCCCC(=O)OCn1c(=O)c(F)cn([C@H]2C[C@H](OC(=O)CCC)[C@@H](COC(=O)CCC)O2)c1=O [Example 4]
- solubility ([1]; 40 °C, oil or lipid; soybean oil; read-out: solubility of this compound in soybean oil): > 300 mg/mL
- growth inhibiting activity (colon 26 cells; male mice inoculated with colon 26 cells in the inguinal region): more than 90%
- body weight (colon 26 cells; male mice inoculated with colon 26 cells): without decrease of body weight

Compound: O=c1[nH]c(=O)n([C@H]2C[C@H](O)[C@@H](CO)O2)cc1F [FdUrd, 2'-Deoxy-5-fluorouridine]
- cancer inhibitory activity relative to 5-fluorouracil [2]: more than 100 times
- in vivo advantage over 5-fluorouracil [3]: no advantage over 5-fluorouracil

More lines, now with the values ahead:

- solubility of this compound in soybean [1]: 150 mg/0.5 ml
Compound: CCCCC/C=C\C/C=C\CCCCCCCC(=O)OCn1c(=O)c(F)cn([C@H]2C[C@H](OC(=O)Oc3ccccc3)[C@@H](COC(=O)Oc3ccccc3)O2)c1=O [Example 15, 3',5'-O-diphenoxycarbonyl-3-linolyloxymethyl-2'-deoxy-5-fluorouridine]

- solubility of this compound in soybean [1]: 150 mg/0.5 ml
Compound: CCCCC/C=C\C/C=C\CCCCCCCC(=O)OCn1c(=O)c(F)cn([C@H]2C[C@H](OC(=O)Oc3ccc(OC)cc3)[C@@H](COC(=O)Oc3ccc(OC)cc3)O2)c1=O [Example 16, 3',5'-O-di(4-methoxyphenoxy-carbonyl)-3-linolyloxymethyl-2'-deoxy-5-fluorouridine]

- solubility of this compound in soybean oil [1]: > 300 mg/soybean oil 1 ml
Compound: CCCCC/C=C\C/C=C\CCCCCCCC(=O)OCn1c(=O)c(F)cn([C@@H]2O[C@H](COC(=O)CCC)[C@@H](OC(=O)CCC)[C@H]2OC(=O)CCC)c1=O [Example 19, 2',3',5'-O-tri-n-butyryl-3-linolyloxymethyl-5-fluorouridine]

- solubility of this compound in soybean oil [1]: > 300 mg/soybean oil 1 ml
Compound: CCCCCCC(=O)OCn1c(=O)c(F)cn([C@@H]2O[C@H](COC(=O)CCC)[C@@H](OC(=O)CCC)[C@H]2OC(=O)CCC)c1=O [Example 20, 2',3',5'-O-tri-n-butyryl-3-n-heptanoyloxymethyl-5-fluorouridine]
